The values that follow come from US11058772B2, “(Bacterio)chlorophyll photosensitizers for treatment of eye diseases and disorders” (Yeda Research and Development Co. Ltd., priority 2011, dated 2021).

Data set [1] in a line: ESR spin trapping (4-POBN) of reactive oxygen species in aqueous solution. It is filed as physicochemical. The following applies: NIR (WST11) or UVA (RF) irradiation. The method, then: All ESR measurements were carried out using a Magnettech ESR Miniscope MS 100 Spectrometer (Germany), with a Microwave X-band Bridge. The ESR spectrometer operates at 9.3-9.55 GHz, 20 mW microwave power. ESR measurements were carried out at room temperature in glass capillaries or flat cells. […] To each solution, the spin-trap α-(4-pyridyl N-oxide)-N-tert-butylnitrone (4-POBN, 65 mM) and ethanol (8%) were added. Controls contained illuminated 4-POBN in saline with/without dextran, and non-illuminated Bchl-S, Bchl-D, RF and RF-D solutions with/without 4-POBN.

Data set [2] relates to rabbit cornea. Nature of the data set: Penetration depth in cornea from aqueous 65% sucrose solution. It is filed as in vivo. The following applies: 2.5 mg/ml in aqueous 65% sucrose. Here is the method: Eyes of rabbits were enucleated and deepithelialised mechanically post mortem. The eyes were exposed to Bchl-S solution using an eye cap for 5, 10, and 30 minutes and to Bchl-D solution for 10 and 30 min, in darkness. Controls: untreated eyes, and one eye treated with dextran-500 only for 30 min in darkness. Following this pretreatment, the corneas were briefly rinsed with saline and the central 8-mm buttons were trephined, removed, wrapped in aluminum foil and frozen on dry ice until further use. Central serial corneal sagittal slices (12 μm) were cut with a cryomicrotome, mounted on a microscope glass slide and stored frozen in −70° C. until use. For measurement of fluorescence, the individual slices were placed on the microscope base and a photographic record was immediately taken. Fluorescence intensity of Bchl-S or Bchl-D treated corneas from 3 serial cryo sections was recorded at 760 nm, upon excitation at 740 nm, using a fluorescence microscope (BX61 Olympus, Japan) equipped with CCD camera (Cascade 512B, Roper Sci., USA) and a long pass filter of above 760 nm. The digital data was analyzed, using ImageJ software (NIH, USA). […]

Data set [3] deals with rabbit cornea. Briefly: Stress-strain measurements of ex-vivo treated corneas. The following applies: for Mean Young's Modulus Intensity / Mean ultimate stress Intensity: 30 min incubation then 30 min illumination (NIR for WST11, UVA for RF-D); for Mean Young's Modulus Intensity / Mean ultimate stress Intensity / Mean Young's Modulus Increase % / Mean ultimate stress Increase %: dipotassium salt; for Mean Young's Modulus Increase % / Mean ultimate stress Increase %: 30 min incubation, 30 min NIR, vs untreated fellow eyes. The method, then:
Eyes of rabbits (15-16 weeks old, weighting 3-4 Kg) were enucleated post mortem. Before enucleation, the 12 and 6 h position were marked on the sclera for preservation of subsequent cutting orientation. The corneas were de-epithelialized mechanically using a PKR scraper (Becton Dickenson, USA). Usually, about 10 rabbits were assigned to bacteriochlorophyll/NIR treatment, herein the “test group” (for example WST11/NIR), and 2 rabbits were treated by RF/UVA (herein the “RF/UVA group”) for comparison. In the test group, 10 eyes of 10 rabbits were immersed upside down for 30 minutes in test compound saline solution (Bchl-S) followed by NIR illumination (600-900 nm) with a diode laser at 10 mW/cm^2 for 30 minutes. The untreated contralateral eyes served as controls. In the RF/UVA group, RF-D solution was topically applied on 2 eyes of 2 rabbits, every 10 minutes, for 30 minutes, followed by UVA irradiation at 370 nm by a double diode at 3 mW/cm^2, for 30 minutes. After treatment, the corneo-scleral rings were removed and placed on paraffin hemisphere buttons with a matching shape to establish accurate sectioning without tissue stretching. […] The strips included 2 mm of sclera on both ends. Central corneal thickness was measured by ultrasonic pachymetry (Humphrey ultrasonic pachymeter, USA). The corneal strips were then transferred to the biomechanical tester.
(§1) The corneal and scleral strips were clamped horizontally, at a distance of 6 mm, between the jaws of a microcomputer-controlled biomaterial tester (Minimat, Germany) with a 200 Newton force cell (FIG. 1). Controlled tightening of screws was performed with a calibrated screwdriver at a preset torque of 9 cN.m (Torqueleader, England). The strain was increased linearly at a rate of 1.0 mm/min and was measured up to tissue rupture. Young's modulus was calculated by the testing machine. Ultimate stress and Young's modulus were expressed in Mega Pascal (MPa) units.
Stress-strain measurements were conducted in 12 rabbits as described in Materials and Methods. Briefly, 10 eyes of 10 rabbits were treated by WST11/NIR, and 2 eyes of 2 rabbits were treated by RF-D/UVA. The contralateral eyes served as control.

The test system of data set [4] is rabbit cornea keratocytes. Briefly: Staining for apoptosis (TUNEL assay). It is filed as in vivo. The following applies: one day postoperatively. The method, then:
For apoptosis detection, rabbits were euthanized one day post Bchl-S or Bchl-D treatment. Their corneas were removed, fixated in 4% formaldehyde and embedded in paraffin. […] central sections were prepared from the corneas, placed on microscope slides and deparaffinized. Peroxidase-based terminal deoxyribonucleotidyl transferase-mediated dUTP-digoxigenin nick and labeling (TUNEL) assay was performed according to the manufacturer's instructions (Apop-Tag assay, Chemicon, Merck Millipore, Darmstadt, Germany).

The subject of data set [5] is rabbit sclera. Nature of the data set: Depth of penetration into the rabbit sclera (fluorescence microscopy). The class given is in vitro ADME. The following applies: ex vivo using eye cap and in-situ using Merocel sponge. Here is the method:
Test compound solution was applied in the supero-temporal or infero-nasal (alternating) quadrant of the rabbit by a curved plastic or metal glide with attached Merocel® sponge connected by a tube that ran along the glide outside. The glide was inserted through a conjunctival opening at the limbus (see FIGS. 17A-17B). After placing the glide attached to the sclera, the tube was connected to a syringe or pump, and the test compound reservoir was injected to impregnate the sclera. Application of the photosensitizer was continued for 10 or 30 minutes. Afterwards, the glide with the Merocel® was withdrawn.
The treated scleral area and the opposing control sclera were trephined with a round skin trephine of 8-mm diameter and scissors and immediately frozen. Sagittal slices of 20 microns were dissected with a cryomicrotome at the central area of the scleral button. The fluorescence intensity at 755 nm was recorded upon excitation at 740 nm using a fluorescence microscope (Olympus, Japan).

The subject of data set [6] is rabbit sclera. Nature of the data set: Biomechanical testing of rabbit sclera treated ex vivo, external NIR illumination. The following applies: 2.5 mg/ml 30 min, external NIR 30 min. Here is the method:
The opposite side of the sclera served as control. Scleral strips, 4 mm in width, were cut at the equatorial treated area and the opposite sclera, and stress-strain measurements were performed using a biomaterial tester.
as §1
Stress-strain tests of sclera of enucleated rabbits' eyes were performed following treatment with WST11 (2.5 mg/ml) as described in Materials and Methods. After photosensitizer impregnation, the sclera was illuminated by applying the laser beam directly onto the treated area (external illumination), using a flat optical fiber that run along a curved plastic or metal glide as shown in FIG. 17A. Strips of the sclera were cut and tested.

“Also recorded” adds a separate entry of the source.

Regarding `CCC1C2=Cc3c(C)c(C(=O)NCCS(=O)(=O)[O-])c4[n]3[Pd][n]3c(c(C)c(C(C)=O)c3=CC(=N2)C1C)=CC1=NC(=C4CC(=O)OC)C(CCC(=O)[O-])C1C.[K+].[K+]` (centres unmarked) [WST11, Palladium 3^1-oxo-15-methoxycarbonylmethyl-rhodobacteriochlorin 13^1-(2-sulfoethyl)amide dipotassium salt], the “singlet oxygen trapping (ESR quartet of 4-POBN)” value in data set [1] is reported as “minimal traces of singlet oxygen”. The “superoxide and hydroxyl radicals (ESR sextet of 4-POBN)” value in data set [1] (dipotassium salt) is “generate superoxide and hydroxyl radicals; also recorded: superoxide and hydroxyl radical formation”. The “penetration, fraction of the outer stroma” value in the data set on rabbit cornea [2] (10-min incubation) was “⅓”. Further, the “penetration, fraction of the outer stroma” value in the data set with rabbit cornea [2] (30-min incubation) is recorded as “½”. In addition, in the data set on rabbit cornea [3], the “Mean Young's Modulus Intensity” value turned out to be 17.65 ± 8.25 MPa, the “Mean ultimate stress Intensity” value turned out to be 5.98 ± 2.11 MPa, the “Mean Young's Modulus Increase %” value was 410% and the “Mean ultimate stress Increase %” value stood at 286%. In the data set with rabbit cornea [3] (listed as WST11-S), the “Mean Young's Modulus Intensity” value was 17.65 MPa, the “Mean ultimate stress Intensity” value stood at 5.98 MPa, the “Mean Young's Modulus Increase %” value is given as 369% and the “Mean ultimate stress Increase %” value is listed as 267%. The “increase in the corneal stiffness” value in the data set on rabbit cornea [3] (30 min pre-incubation then NIR, vs untreated control eyes) is listed as approximately 3 fold. Also, the “location of TUNEL-positive keratocytes” value in data set [4] is “outer ½ of anterior stroma”. Also, the penetration into sclera entry in the data set with rabbit sclera [5] is “penetrated into sclera tissue”. Besides, the mean maximal stress in the data set on rabbit sclera [6] (control 2.77±0.99) was found to be 7.6±0.99 MPa. For the same compound, the “mean Young's modulus” value with rabbit sclera [6] (control 15.2±7.5) amounted to 45.6±3.9 MPa.
